Earlier results, collected in article PMC4224523 (Molecular Pharmaceutics, 2014).

Details: general statement in introduction

For `FC1(F)OC(F)(F)C(F)(F)OC(F)(F)C(F)(F)OC(F)(F)C(F)(F)OC(F)(F)C(F)(F)OC1(F)F` [PFCE, Perfluoro-15-crown-5-ether], the solubility in solvents is listed as “insoluble in most solvents”.
